From patent US10829499B2, “Tetracyclic heterocycle compounds useful as HIV integrase inhibitors” (MERCK SHARP & DOHME CORP., priority 2016, dated 2020) come the findings set out here.

The test system of this assay is HIV-1 (NL4-3 strain). Briefly: Assay for Inhibition of HIV Replication (kinetic assay, MT4-gag-GFP reporter cell line; VIKING). The format is cell-based. In short, it runs like this:
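MT4-gag-GFP cells infected with HIV-1 NL4-3 at low MOI for 24 h were seeded with compound (0.4% DMSO) in medium with 0%, 10% or 100% normal human serum. GFP-positive cells were counted at 24 and 48 h, and R0 was the 48 h/24 h ratio. Inhibition was scaled to DMSO and triple-drug controls, and IC50 came from 4-parameter fits.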

Where [1] appears, read: MT4-GFP cells infected with HIV-1 NL4-3, 0% normal human serum (NHS), read-out: VIKING IP50 (nM) with 0% NHS.
[2] abbreviates: MT4-GFP cells infected with HIV-1 NL4-3, 100% normal human serum (NHS), read-out: VIKING IP50 (nM) with 100% NHS.
[3] abbreviates: Human immunodeficiency virus 1, NL43, MT4-GFP cells infected with HIV-1 NL4-3, 0% normal human serum (NHS), read-out: VIKING IP50 (nM) with 0% NHS.
Where [4] appears, read: Human immunodeficiency virus 1, NL43, MT4-GFP cells infected with HIV-1 NL4-3, 100% normal human serum (NHS), read-out: VIKING IP50 (nM) with 100% NHS.

SMILES strings stand for the structures. Read-outs that look alike come from different tables or passages of the source.

Regarding `O=C(NCc1ccc(F)cc1)c1c2n3c(c(O)c1=O)C(=O)N1CCCOC1C3CC2` (single isomer, unassigned) [Compound 52], the IC50 under setting [1] worked out at 1.29 nM and the IC50 under setting [2] was determined as 3380 nM.
For `COC1CC2C3N(C)CCN3C(=O)c3c(O)c(=O)c(C(=O)NCc4ccc(F)cc4F)c1n32` (stereo not shown) [Compound 124] the same measures were 7.41 nM and 28 nM.
In the same order, the values of `O=C(NCc1c(F)cccc1F)c1c2n3c(c(O)c1=O)C(=O)N1CCOC1C3CC2` (single isomer, unassigned) [Compound 15] are 0.609 nM and 373 nM.
Regarding `O=C(NCc1cccc(F)c1F)c1c2n3c(c(O)c1=O)C(=O)N1C4CCC(C4)OC1C3CC2` (stereo not shown) [Compound 164], the IC50 reads like this: under setting [3], 4.89 nM; under setting [2], 1390 nM.
As to `CC(=O)N1C2C3CCc4c(C(=O)NCc5cccc(Cl)c5F)c(=O)c(O)c(n43)C(=O)N2C[C@@H]1C` (stereo partly shown) [Compound 122], the IC50 under setting [3] turned out to be 2.17 nM and the IC50 under setting [4] came out at 30.1 nM.
With `CCNC1CC2C3OCCCN3C(=O)c3c(O)c(=O)c(C(=O)NCc4cccc(F)c4F)c1n32` (stereo not shown) [Compound 191], the IC50 is, setting by setting: under setting [1], 12.6 nM; under setting [2], 63.6 nM.
`CN1CCCN2C(=O)c3c(O)c(=O)c(C(=O)NCc4ccc(F)cc4F)c4n3C(CC4)C12` (single isomer, unassigned) [Compound 83]: the IC50 reads like this: under setting [1], 0.857 nM; under setting [2], 16.8 nM.
Turning to `CCNC1C[C@@H]2[C@H]3OC4CCC(C4)N3C(=O)c3c(O)c(=O)c(C(=O)NCc4ccc(F)cc4F)c1n32` (stereo partly shown) [Compound 174], the IC50 by setting is: under setting [3], 30.2 nM; under setting [4], 114 nM.
Regarding `CCNC1CC2C3OCCCN3C(=O)c3c(O)c(=O)c(C(=O)NCc4ccc(F)cc4F)c1n32` (stereo not shown) [Compound 204], the IC50 by setting is: under setting [1], 15.7 nM; under setting [2], 4830 nM.
Regarding `COc1cc(F)cc(F)c1CNC(=O)c1c2n3c(c(O)c1=O)C(=O)N1CCCOC1C3CC2` (racemic) [Compound 59], the IC50 is, setting by setting: under setting [3], 3.08 nM; under setting [4], 8400 nM.
Consider `O=C(NCc1cccc(Cl)c1F)c1c2n3c(c(O)c1=O)C(=O)N1CCOC1C3CC2` (single isomer, unassigned) [Compound 4], for which the IC50 came to 0.439 nM under setting [1] and 93.6 nM under setting [2].
For `O=C(NCc1cccc(Cl)c1F)c1c2n3c(c(O)c1=O)C(=O)N1C4CCC(C4)OC1C3CC2` (stereo not shown) [Compound 155] the same measures were 2.77 nM and 7460 nM.
For the compound `C[C@H]1CN2C(=O)c3c(O)c(=O)c(C(=O)NCc4cccc(Cl)c4F)c4n3C(CC4)C2N1` (stereo partly shown) [Compound 91], the IC50 runs as follows: under setting [1], 1 nM; under setting [2], 464 nM.
In the same order, the values of `O=C(NCc1ccc(F)cc1)c1c2n3c(c(O)c1=O)C(=O)N1CCCOC1C3CC2` (single isomer, unassigned) [Compound 54] are 0.654 nM and 904 nM.
For `CCNC1CC2C3OCCCN3C(=O)c3c(O)c(=O)c(C(=O)NCc4cccc(Cl)c4F)c1n32` (stereo not shown) [Compound 193], the IC50 reads like this: under setting [1], 7.89 nM; under setting [2], 2910 nM.
In the same order, the values of `COC1CC2C3OCCN3C(=O)c3c(O)c(=O)c(C(=O)NCc4ccc(F)cc4F)c1n32` (single isomer, unassigned) [Compound 75] are 4.99 nM and 6180 nM.
For the compound `O=C(NCc1c(F)cc(F)cc1F)c1c2n3c(c(O)c1=O)C(=O)N1CCOC1C3CC2` (single isomer, unassigned) [Compound 18], the IC50 is, setting by setting: under setting [3], 0.483 nM; under setting [4], 8000 nM.
On to `C[C@H]1COC2C3CCc4c(C(=O)NCc5ccc(F)cc5F)c(=O)c(O)c(n43)C(=O)N21` (single isomer, unassigned) [Compound 27], for which the IC50 runs as follows: under setting [3], 0.313 nM; under setting [2], 956 nM.
With `C[C@@H]1CN2C(=O)c3c(O)c(=O)c(C(=O)NCc4cccc(Cl)c4F)c4n3C(CC4)C2O1` (single isomer, unassigned) [Compound 40], the IC50 is, setting by setting: under setting [1], 1.84 nM; under setting [2], 8000 nM.
As for `O=C(NCc1c(F)cccc1F)c1c2n3c(c(O)c1=O)C(=O)N1CCOC1C3CC2` (single isomer, unassigned) [Compound 16], the IC50 under setting [4] came to 8000 nM and the IC50 under setting [1] is 6.28 nM.
With `O=C(NCc1c(F)cc(F)cc1F)c1c2n3c(c(O)c1=O)C(=O)N1C4CCC(C4)OC1C3CC2` (stereo not shown) [Compound 168], the IC50 under setting [3] was found to be 3.72 nM and the IC50 under setting [2] amounted to 1620 nM.
In the case of `C[C@@H]1COC2C3CCc4c(C(=O)NCc5ccc(F)cc5F)c(=O)c(O)c(n43)C(=O)N21` (single isomer, unassigned) [Compound 34], the IC50 runs as follows: under setting [1], 0.635 nM; under setting [2], 1560 nM.
In the same order, the values of `CCNC1CC2C3OCCCN3C(=O)c3c(O)c(=O)c(C(=O)NCc4ccc(F)cc4F)c1n32` (stereo not shown) [Compound 207] are 5.21 nM and 140 nM.
For `O=C(NCc1c(F)cc(F)cc1F)c1c2n3c(c(O)c1=O)C(=O)N1CCOC1C3CC2` (single isomer, unassigned) [Compound 20] the same measures were 0.727 nM and 602 nM.
For `CN1CCCN2C(=O)c3c(O)c(=O)c(C(=O)NCc4ccc(F)cc4F)c4n3C(CC4)C12` (single isomer, unassigned) [Compound 82] the same measures were 1.17 nM and 550 nM.
For `O=C(NCc1c(F)cc(F)cc1F)c1c2n3c(c(O)c1=O)C(=O)N1C4CCC(C4)OC1C3CC2` (stereo not shown) [Compound 170], the IC50 worked out at 2.59 nM under setting [1] and 5360 nM under setting [2].
Turning to `CCNC1CC2C3OCCCN3C(=O)c3c(O)c(=O)c(C(=O)NCc4cccc(F)c4F)c1n32` (stereo not shown) [Compound 185], the IC50 is, setting by setting: under setting [3], 11.7 nM; under setting [4], 1160 nM.
`CCNC1CC2C3OCCCN3C(=O)c3c(O)c(=O)c(C(=O)NCc4cccc(F)c4F)c1n32` (stereo not shown) [Compound 189]: the IC50 by setting is: under setting [1], 11 nM; under setting [2], 3870 nM.
In the case of `C[C@H]1CN2C(=O)c3c(O)c(=O)c(C(=O)NCc4cccc(Cl)c4F)c4n3C(CC4)C2N1` (stereo partly shown) [Compound 92], the IC50 came out at 0.67 nM under setting [1] and 8.12 nM under setting [2].
For `O=C(NCc1ccc(F)cc1)c1c2n3c(c(O)c1=O)C(=O)N1C4CCC(C4)OC1C3CC2` (stereo not shown) [Compound 162] the same measures were 3.9 nM and 50.4 nM.
For `C[C@H]1CCOC2C3CCc4c(C(=O)NCc5ccc(F)cc5F)c(=O)c(O)c(n43)C(=O)N21` (single isomer, unassigned) [Compound 62], the IC50 under setting [1] was 0.83 nM and the IC50 under setting [2] was 528 nM.
On to `C[C@@H]1CN2C(=O)c3c(O)c(=O)c(C(=O)NCc4cccc(Cl)c4F)c4n3C(CC4)C2O1` (single isomer, unassigned) [Compound 39], for which the IC50 runs as follows: under setting [4], 8000 nM; under setting [1], 0.575 nM.
With `C[C@H]1CN2C(=O)c3c(O)c(=O)c(C(=O)NCc4ccc(F)cc4F)c4n3C(CC4)C2N1` (stereo partly shown) [Compound 96], the IC50 under setting [1] was found to be 2.04 nM and the IC50 under setting [2] is 13.8 nM.
For `COC1CC2C3OCCN3C(=O)c3c(O)c(=O)c(C(=O)NCc4ccc(F)cc4F)c1n32` (single isomer, unassigned) [Compound 78] the same measures were 2.12 nM and 534 nM.
For `CCCN1C[C@H](C)N2C(=O)c3c(O)c(=O)c(C(=O)NCc4cccc(Cl)c4F)c4n3C(CC4)C12` (stereo partly shown) [Compound 114] the same measures were 6.36 nM and 175 nM.
